Experimental data reported in patent US20050260158A1, “Human stem cell materials and methods” (priority 2003, published 2005).
Read-outs that look alike come from different tables or passages of the source.

How the values were obtained:
[1] = tested on: MDSC cultures; assay: Insulin release from MDSC cultures (insulin ELISA); format: cell-based, human; set-up: insulin release with osmolarity control: dose or concentration left out as unconfirmed
Experimental: Insulin release. MDSC cultures incubated in 24-well tissue culture plates (Costar, Cambridge, Mass.) at 70-80% confluence were treated for 4-5 days with LPS or CD40Ab. Insulin secretion was assessed as previously described in Schuit, F., et al., J. Biol. Chem. 272:18572-18579 (1997), using an insulin ELISA kit (Linco Research, MO). When required, the untreated or treated cultures were also pre-incubated for 30 min with […] diazoxide, 10 mM tolbudamide, or […] IBMX.

[2] = tested on: MDSC cultures; assay: HGF-induced hepatocyte differentiation of MDSC cultures; format: cell-based, human
From the text: A smaller fraction of 33±4% also immunostained for cytokeratin 7, which is a marker of bile duct epithelium (Ruck et al., Histopathology 31: 324-329 (1997)). Only 8±5% of control cells immunostained for albumin, 6±5% for AFP, and 7±3% for cytokeratin 7.

[3] = tested on: MDSC colonies Clone 1 and Clone 2; details: seven days; for Immunostained cells (%), AFP (Hepatocyte): 50 ng/ml HGF; for Immunostained cells (%), MAP1-B (Neuronal): 200 ng/ml NGF; for Immunostained cells (%), vWF (Endothelial): 50 ng/ml VEGF; for Immunostained cells (%), Keratins (Epithelial): 100 ng/ml EGF
Experimental: To determine whether progeny of colonies derived from single MDSCs can be induced to differentiate into distinct cell lineages, cells from a five-day, 50 ng/ml, M-CSF-treated culture enriched to contain 99.97% peripheral blood monocytes were inoculated into 12 U-bottom tissue culture plates, 96 wells each, at 0.8 cells/well in 0.1-0.2 ml growth medium. The cells were then incubated in the presence of 50 ng/ml M-CSF and 1,000 units/ml LIF for 15-20 days. Additionally, one plate was incubated with 25% conditioned medium from a five-day, 50 ng/ml, M-CSF treated culture. […] The few wells that contained more than one cell were excluded from further experimentation. Medium was replaced every 5-7 days.
At 45-52 days, these cells were dispersed by forceful pipetting, without lidocaine, into flat-bottom, 96-well, tissue culture plates. […] Two colonies of MDSCs, each of which had arisen from a single cell, were chosen for further differentiation experiments and were termed Clone 1 and Clone 2. […] These antibodies separately recognized cell-surface markers that included the T lymphocyte marker CD3, the epithelial marker keratin, the endothelial marker vWF, the neuronal marker MAP1-B, and the hepatocyte marker AFP.

[4] = tested on: MDSCs; assay: Dispersion of MDSCs from the culture dish by standard digestion; format: cell-based, human; details: standard digestion for up to 60 minutes
Experimental: In this example, a feature of the MDSCs is resistance to dispersion by trypsin and/or EDTA, or dispase. […] Therefore, to obtain cell suspensions for subculture, the MDSCs were dispersed by forceful pipetting after incubation with 2% lidocaine in a PBS solution for 5-8 minutes, with the exception of the work described in Example 8.

[5] = tested on: freshly cultured peripheral blood monocytes; assay: bNGF treatment of freshly cultured peripheral blood monocytes; format: cell-based, human; details: bNGF for 7 or 20 days
[6] = tested on: MDSC cultures; assay: bNGF-induced neuronal cell differentiation of MDSC cultures; format: cell-based, human; details: 200 ng/ml bNGF
Experimental: To examine the ability of MDSCs to mature along yet another cell lineage, the effect of nerve growth factor (bNGF), an inducer of neuronal differentiation (McAllister et al., Cell. Mol. Life Sci., 58:1054-1060 (2001)), was tested. […] After 5-8 days these processes, some of which were exceedingly long, formed cell-cell contacts and created the appearance of a neural network. These mature cells were further characterized by immunostaining for neuron-specific enolase (NSE), neurofilament (NF) and microtubule-associated protein-1B (MAP-1B), which are well-known markers of neuronal cells (Encinas et al., J. Neurochem., 75:991-1003 (2000)).

[7] = tested on: MDSC cultures; assay: VEGF-induced endothelial cell differentiation of MDSC cultures; details: 50 ng/ml VEGF, 5-7 days
Experimental: MDSC cultures prepared as described above were treated with 50 ng/ml of recombinant human vascular endothelial growth factor165 isoform (VEGF) for 5-7 days.

[8] = tested on: MDSC cultures; assay: EGF-induced epithelial cell differentiation of MDSC cultures; format: cell-based, human; details: 100 ng/ml EGF, 4 days
From the text: To determine whether MDSCs differentiate into lineages other than those of blood cells, the ability to differentiate into epithelial cells was initially tested. […] Only 4±1% of control cells stained for keratins and 3±2% for E-cadherin. Cells that stained positive for E-cadherin consistently stained for keratins.

[9] = tested on: human peripheral blood monocytes; assay: Generation and growth of MDSCs in cultured peripheral blood monocytes (morphological examination); format: cell-based
Experimental: Peripheral blood monocyte (PBM) preparations from about 50 ml buffy coats samples (each from 500 ml peripheral blood) of healthy individuals (LifeSource Blood Services, Glenview, Ill.) were obtained by a selective attachment method as previously described (Hoklland, M. et al., Cell Biology, a laboratory handbook, Celis J. E. ed., Academic Press, 1: 179-181 (1994)). Buffy coat cell samples of 20-25 ml, which were diluted earlier with an equal volume of RPMI 1640 medium (Life Technologies, Inc.), were carefully layered over 20 ml Ficoll-Hypaque (γ=1.077) in 50 ml centrifuge tubes and then centrifuged using a Beckman CPKR centrifuge and a GH-3.7 horizontal rotor at 3,500 rpm (2700 g) for 25 minutes at 4° C. After carefully harvesting the mononuclear cells at the interface, cells were washed 2-3 times with RPMI 1640 medium by centrifugation using a Beckman CPKR centrifuge and a GH-3.7 horizontal rotor at 1,000 rpm (250 g) for 10 minutes. The cells were then used for culture and/or stored in liquid nitrogen in a 90% bovine calf serum and 10% dimethyl sulfoxide solution. The cells, including those obtained from storage in liquid nitrogen, were incubated at 2-3×10^7 cells/15 cm dish. After 8-12 hours incubation at 37° C. (8% CO2), the floating cells were removed and the dishes were rinsed 5 times with RPMI 1640 medium. The attached cells were then detached from the surface of the dishes by forceful pipetting with 5-10 ml of RPMI 1640 medium supplemented with 10% bovine calf serum.
The percentage of PBM was verified by immunostaining with an R-phycoerythin-conjugated mouse anti-human CD14 monoclonal antibody using a Becton Dickinson FACScan. The fraction of CD14 cells in these cell preparations, which were usually used in the experiments, was 90-95%. In a number of experiments, the CD14-immunostained cells were further isolated to a purity of 99.97% by using a droplet cell-sorting method by means of a 5 detector Becton Dickinson FACStarPlus Cell Sorter. The isolated PBMs were inoculated at 1×10^5 cells/ml in 8-well LabTek chamber slides (Nunc, Inc., Naperville, Ill.) at 0.4 ml/well in a 37° C. humidified atmosphere containing 8% CO2. Every five to seven days, one-half of the culture medium was replaced with fresh growth medium. This medium consisted of RPMI-1640 supplemented with 10% heat-inactivated bovine calf serum (Harlan, Indianapolis, Ind.), 100 units/ml penicillin, 100 μg/ml streptomycin, and 2 mM L-glutamine (Life Technologies).
Five preparations of cultured human peripheral blood monocytes, each from a different individual, were treated with 50 ng/ml M-CSF (Zhoa et al., Proc. Natl. Acad. Sci., 100:2426-2431 (2003); incorporated herein by reference in its entirety). After five days of incubation, the cultures contained two major morphologically distinct subsets of cells. The less abundant of the two subsets, containing about 25-35% of the total cells, was composed of elongated cells that morphologically resembled fibroblasts and were termed monocyte-derived stem cells (MDSCs). The other subset, containing about 65-75% of the total, was composed of standard macrophages, which were termed s-macrophages or standard macrophages (s-MΦ) (FIG. 1). […]
In order to determine whether the MDSCs were simply replicating progenitors of s-MΦ, five preparations of cultured peripheral blood monocytes, each from a different human, were treated with 50 ng/ml M-CSF and the number of MDSCs and s-MΦ were determined over a period of 14 days by morphological examination. […]

[10] = 50 ng/ml M-CSF, five days, five monocyte preparations

## CC1=NS(=O)(=O)c2cc(Cl)ccc2N1 [diazoxide]
[1]; high glucose, 30 min pre-incubation
  effect on LPS- or CD40Ab-induced insulin release: effectively inhibited

## HGF: recombinant human hepatocyte growth factor
[2]; 100 ng/ml HGF, 5-7 days
  cells displaying round or oval-like flattened morphology: 75-80%
  cells immunostaining for cytokeratin 7: 33±4%
  treated cells immunostaining for AFP: 81±7%
  treated cells immunostaining for albumin: 75±7%
[2]; HGF 50 ng/ml (Table 3)
  Percentage of cells displaying immunostaining for AFP: 81 ± 7%
  Percentage of cells displaying immunostaining for Albumin: 75 ± 7%
  Percentage of cells displaying immunostaining for Cytokeratin 7: 33 ± 4%
[3]; Clone 1
  Immunostained cells (%), AFP (Hepatocyte): 88%
[3]; Clone 2
  Immunostained cells (%), AFP (Hepatocyte): 75%

## trypsin
[4]
  removal of MDSCs from the surface of the culture dish: failed to remove the MDSCs

## bNGF: nerve growth factor, an inducer of neuronal differentiation
[5]
  neuronal differentiation: Little to no neuronal differentiation
[3]; Clone 1
  Immunostained cells (%), MAP1-B (Neuronal): 83%
[3]; Clone 2
  Immunostained cells (%), MAP1-B (Neuronal): 80%
[6]
  MDSCs displaying neuronal morphology: about 90%
[6]; 5-8 days
  cells with immunostaining for NSE, NF and MAP-1B: about 90%
[6]; three days
  cells with robust immunostaining for NSE, NF and MAP-1B: 25%

## CCCCNC(=O)NS(=O)(=O)c1ccc(C)cc1 [tolbutamide]
[1]; low glucose (5 mM), 30 minutes, 10 μM tolbudamide, 100 μM IBMX
  effect on LPS- or CD40Ab-induced insulin release: markedly stimulated

## VEGF
[7]
  cells displaying endothelial cell morphology: about 70%
  cells immunostaining for VEGF-R2, VEGF-R3 and vWF: 74±3%
  cells immunostaining for neuronal markers NSE, NF and MAP-1B: 31±4%
[3]; Clone 1
  Immunostained cells (%), vWF (Endothelial): 80%
[3]; Clone 2
  Immunostained cells (%), vWF (Endothelial): 87%

## OC[C@@H](O)[C@@H](O)[C@H](O)[C@H](O)CO [Mannite]
[1]
  insulin release with osmolarity control: little to no insulin release

## EGF: promoter of epithelial cell growth and differentiation
[8]
  MDSCs displaying epithelial cell morphology: about 70%
  cells immunostaining for E-cadherin: 68±5%
  cells immunostaining for pan-keratins: 71±4%
[3]; Clone 1
  Immunostained cells (%), Keratins (Epithelial): 89%
[3]; Clone 2
  Immunostained cells (%), Keratins (Epithelial): 76%

B1: M-CSF: macrophage colony-stimulating factor, mitogenic compound used to propagate MDSCs (protein, UniProt P09603 33-554, looked up)
Macrophage colony-stimulating …: EEVSEYCSHMIGSGHLQSLQRLIDSQMETSCQITFEFVDQEQLKDPVCYLKKAFLLVQDIMEDTMRFRDNTPNAIAIVQLQELSLRLKSCFTKDYEEHDKACVRTFYETPLQLLEKVKNVFNETKNLLDKDWNIFSKNCNNSFAECSSQDVVTKPDCNCLYPKAIPSSDPASVSPHQPLAPSMAPVAGLTWEDSEGTEGSSLLPGEQPLHTVDPGSAKQRPPRSTCQSFEPPETPVVKDSTIGGSPQPRPSVGAFNPGMEDILDSAMGTNWVPEEASGEASEIPVPQGTELSPSRPGGGSMQTEPARPSNFLSASSPLPASAKGQQPADVTGTALPRVGPVRPTGQDWNHTPQKTDHPSALLRDPPEPGSPRISSLRPQGLSNPSTLSAQPQLSRSHSSGSVLPLGELEGRRSTRDRRSPAEPEGGPASEGAARPLPRFNSVPLTDTGHERQSEGSFSPQLQESVFHLLVPSVILVLLAVGGLLFYRWRRRSHQEPQRADSPLEQPEGSPLTQDDRQVELPV
[9]; 50 ng/ml M-CSF, after day 10
  MDSCs in confluent cultures: 80-90%
[9]; 50 ng/ml M-CSF, estimated from growth curve after 6 days
  MDSC population replication interval: three
[9]; [10]
  MDSCs, share of the total cells: 25-35%
  standard macrophages (s-MΦ), share of the total cells: 65-75%
[9]; 50 ng/ml, 7-9 days
  cells with MDSC morphology: 70-80%
